From US10660877B2 (BRISTOL-MYERS SQUIBB COMPANY, priority 2016, dated 2020)
pIC50: −log10 of the molar value. Read-outs that look alike come from different tables or passages of the source.

Experiments:
[1] = molecular target: human TLR8 (Homo sapiens (Human), UniProt Q9NR97); test: TLR8 inhibition reporter assay (HEK-Blue cells, SEAP reporter, R848 stimulation);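 note: compounds tested from 0.05 nM to 50 µM, 22 h at 37 °C, SEAP measured with HEK-Blue Detection, inhibition relative to agonist plus DMSO versus a known inhibitor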
human TLR8, sequence (Q9NR97 27-1041): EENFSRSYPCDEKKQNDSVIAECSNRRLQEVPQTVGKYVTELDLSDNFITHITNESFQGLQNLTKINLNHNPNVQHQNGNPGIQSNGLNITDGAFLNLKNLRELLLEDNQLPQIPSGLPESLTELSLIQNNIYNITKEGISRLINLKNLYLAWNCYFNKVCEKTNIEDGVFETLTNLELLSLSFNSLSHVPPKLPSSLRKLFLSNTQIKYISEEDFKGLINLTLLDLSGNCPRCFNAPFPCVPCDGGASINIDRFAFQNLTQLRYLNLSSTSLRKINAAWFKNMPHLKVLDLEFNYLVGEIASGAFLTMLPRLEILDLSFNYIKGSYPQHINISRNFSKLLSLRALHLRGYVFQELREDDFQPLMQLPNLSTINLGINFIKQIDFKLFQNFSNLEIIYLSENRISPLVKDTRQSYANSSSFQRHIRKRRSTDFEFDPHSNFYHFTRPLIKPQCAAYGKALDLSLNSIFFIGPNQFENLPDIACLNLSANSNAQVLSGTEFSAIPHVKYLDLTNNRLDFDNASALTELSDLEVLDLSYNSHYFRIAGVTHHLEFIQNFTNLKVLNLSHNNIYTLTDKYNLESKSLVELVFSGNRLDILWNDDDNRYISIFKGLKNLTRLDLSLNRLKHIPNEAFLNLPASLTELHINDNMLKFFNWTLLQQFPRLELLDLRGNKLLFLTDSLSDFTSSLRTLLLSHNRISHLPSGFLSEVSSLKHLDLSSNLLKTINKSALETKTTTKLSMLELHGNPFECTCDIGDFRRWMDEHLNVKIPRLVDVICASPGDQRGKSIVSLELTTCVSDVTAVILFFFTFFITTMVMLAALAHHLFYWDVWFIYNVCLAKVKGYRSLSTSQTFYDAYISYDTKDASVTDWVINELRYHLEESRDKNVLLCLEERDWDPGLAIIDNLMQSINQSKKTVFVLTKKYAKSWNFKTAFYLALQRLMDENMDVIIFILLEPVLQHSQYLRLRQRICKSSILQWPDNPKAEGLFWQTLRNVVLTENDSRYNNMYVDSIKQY

[2] = molecular target: human TLR9 (Homo sapiens (Human), UniProt Q9NR96); test: TLR9 inhibition reporter assay (HEK-Blue cells, SEAP reporter, ODN2006 stimulation);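 note: compounds tested over 0.05 nM to 50 µM, 22 h incubation, inhibition taken as SEAP signal drop from agonist plus DMSO wells toward a known inhibitor control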
human TLR9, sequence (Q9NR96 26-1032): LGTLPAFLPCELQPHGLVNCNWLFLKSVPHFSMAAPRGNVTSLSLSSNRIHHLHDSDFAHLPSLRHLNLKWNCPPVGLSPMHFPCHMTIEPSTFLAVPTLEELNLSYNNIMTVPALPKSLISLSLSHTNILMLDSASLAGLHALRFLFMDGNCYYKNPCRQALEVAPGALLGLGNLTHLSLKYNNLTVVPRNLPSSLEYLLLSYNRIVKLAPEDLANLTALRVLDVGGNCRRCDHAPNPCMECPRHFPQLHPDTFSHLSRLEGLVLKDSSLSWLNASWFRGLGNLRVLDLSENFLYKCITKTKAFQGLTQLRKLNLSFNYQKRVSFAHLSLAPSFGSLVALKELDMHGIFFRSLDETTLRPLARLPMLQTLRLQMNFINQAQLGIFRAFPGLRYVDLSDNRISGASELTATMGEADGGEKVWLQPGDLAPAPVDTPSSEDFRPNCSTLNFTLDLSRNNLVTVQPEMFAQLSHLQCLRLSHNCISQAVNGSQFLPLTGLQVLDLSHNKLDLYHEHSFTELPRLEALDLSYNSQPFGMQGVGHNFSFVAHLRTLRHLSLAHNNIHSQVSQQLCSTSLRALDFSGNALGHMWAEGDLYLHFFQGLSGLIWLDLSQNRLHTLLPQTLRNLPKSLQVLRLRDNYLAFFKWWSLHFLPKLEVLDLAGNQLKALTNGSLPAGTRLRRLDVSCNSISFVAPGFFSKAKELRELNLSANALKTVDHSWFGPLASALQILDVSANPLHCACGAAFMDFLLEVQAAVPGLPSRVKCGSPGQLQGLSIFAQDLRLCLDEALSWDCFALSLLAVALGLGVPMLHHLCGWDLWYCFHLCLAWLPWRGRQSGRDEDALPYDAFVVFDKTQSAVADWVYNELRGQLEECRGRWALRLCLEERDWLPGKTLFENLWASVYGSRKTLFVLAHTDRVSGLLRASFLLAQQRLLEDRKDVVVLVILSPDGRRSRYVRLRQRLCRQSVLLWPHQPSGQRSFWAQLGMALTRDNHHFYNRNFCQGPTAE

[3] = molecular target: human TLR7 (Homo sapiens (Human), UniProt Q9NYK1); test: TLR7 inhibition reporter assay (HEK-Blue cells, SEAP reporter, gardiquimod stimulation); format: cell-based
human TLR7, sequence (Q9NYK1 27-1049): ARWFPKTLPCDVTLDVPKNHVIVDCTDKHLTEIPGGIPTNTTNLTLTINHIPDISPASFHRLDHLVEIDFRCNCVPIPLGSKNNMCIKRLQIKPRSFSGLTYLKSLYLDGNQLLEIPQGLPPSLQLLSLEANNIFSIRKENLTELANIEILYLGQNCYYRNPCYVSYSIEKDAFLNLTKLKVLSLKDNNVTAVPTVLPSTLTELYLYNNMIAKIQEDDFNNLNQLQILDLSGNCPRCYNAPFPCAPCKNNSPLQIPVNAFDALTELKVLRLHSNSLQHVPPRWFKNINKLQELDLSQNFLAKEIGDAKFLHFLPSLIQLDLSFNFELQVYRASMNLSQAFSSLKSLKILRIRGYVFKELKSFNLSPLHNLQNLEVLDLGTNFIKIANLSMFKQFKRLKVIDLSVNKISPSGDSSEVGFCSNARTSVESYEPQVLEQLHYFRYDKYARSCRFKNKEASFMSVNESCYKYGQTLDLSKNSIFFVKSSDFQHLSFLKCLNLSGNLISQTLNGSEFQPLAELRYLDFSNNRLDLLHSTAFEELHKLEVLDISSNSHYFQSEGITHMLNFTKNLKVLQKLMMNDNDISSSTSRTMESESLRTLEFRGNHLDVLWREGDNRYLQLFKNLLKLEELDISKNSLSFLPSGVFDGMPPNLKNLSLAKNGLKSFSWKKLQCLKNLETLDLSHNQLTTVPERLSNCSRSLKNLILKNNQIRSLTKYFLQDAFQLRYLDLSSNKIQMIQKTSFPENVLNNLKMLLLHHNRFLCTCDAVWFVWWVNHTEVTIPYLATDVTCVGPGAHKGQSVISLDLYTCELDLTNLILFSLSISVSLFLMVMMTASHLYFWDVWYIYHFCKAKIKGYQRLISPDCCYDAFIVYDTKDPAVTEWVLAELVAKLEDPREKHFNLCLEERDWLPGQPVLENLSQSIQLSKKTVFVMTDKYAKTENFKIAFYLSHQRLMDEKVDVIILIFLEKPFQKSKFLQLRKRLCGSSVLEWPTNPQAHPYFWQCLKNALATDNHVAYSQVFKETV

[4] = read-out: TLR8 IC50, HEK-Blue cells overexpressing human TLR8, R848 15.9 μM
[5] = read-out: TLR9 IC50, HEK-Blue cells overexpressing human TLR9, ODN2006 5 nM
[6] = HEK-Blue cells overexpressing human TLR7, gardiquimod 7.5 μM

Row | Structure (SMILES) | pIC50 [1, 4] | pIC50 [2, 5] | pIC50 [3, 6] | pIC50 ([1]; read-out: TLR8 IC50, HEK-Blue cells, R848 15.9 μM) | pIC50 ([2]; read-out: TLR9 IC50, HEK-Blue cells, ODN2006 5 nM) | pIC50 ([3]; HEK-Blue cells, gardiquimod 7.5 μM) | pIC50 ([1]; TLR8 IC50, HEK-Blue cells overexpressing human TLR8, R848 15.9 μM) | pIC50 ([2]; TLR9 IC50, HEK-Blue cells overexpressing human TLR9, ODN2006 5 nM)
1 | Cc1cc(-c2[nH]c3ccc(C4CCN(C(=O)CCC5CCNCC5)CC4)cc3c2C(C)C)ccn1 [Example 568, 1-(4-(3-isopropyl-2-(2-methylpyridin-4-yl)-1H-indol-5-yl)piperidin-1-yl)-3-(piperidin-4-yl)propan-1-one] | 7.87 | 6.24 | 7.92 |  |  |  |  | 
2 | Cc1cc(-c2[nH]c3ccc(C4CCN(S(=O)(=O)C5CC5)CC4)cc3c2C(C)C)ccn1 [Example 555, 5-(1-(cyclopropylsulfonyl)piperidin-4-yl)-3-isopropyl-2-(2-methylpyridin-4-yl)-1H-indole] | 7.04 | < 4.30 | 7.46 |  |  |  |  | 
3 | Cc1cc(-c2[nH]c3ccc(C4CCN(C)CC4)cc3c2C(C)C)cc(C)n1 [Example 429, 2-(2,6-dimethylpyridin-4-yl)-3-isopropyl-5-(1-methylpiperidin-4-yl)-1H-indole] | 8.26 | 6.32 | 8.66 |  |  |  |  | 
4 | CCc1c(-c2ccnc(C)c2)[nH]c2ccc(C3CCN(C(=O)C4(C)CCNCC4)CC3)cc12 [Example 626, (4-(3-ethyl-2-(2-methylpyridin-4-yl)-1H-indol-5-yl)piperidin-1-yl)(4-methylpiperidin-4-yl)methanone] | 7.27 | 6.77 | 7.20 |  |  |  |  | 
5 | Cc1cc(-c2[nH]c3ccc(C4CCN(C(=O)CN(C)C5COC5)CC4)cc3c2C(C)C)cc(C)n1 [Example 416, 1-(4-(2-(2,6-dimethylpyridin-4-yl)-3-isopropyl-1H-indol-5-yl)piperidin-1-yl)-2-(methyl(oxetan-3-yl)amino)ethan-1-one] | 7.30 | 5.32 | 8.35 |  |  |  |  | 
6 | Cc1c(-c2ccncc2)[nH]c2ccc(C3CCN(C4CCN(CC(C)C)CC4)CC3)cc12 [Example 782, 5-(1′-isobutyl-[1,4′-bipiperidin]-4-yl)-3-methyl-2-(pyridin-4-yl)-1H-indole] | 6.42 | 6.91 | 5.88 |  |  |  |  | 
7 | Cc1cc(-c2[nH]c3ccc(C4CCN(C(=O)CNC5CCC5)CC4)cc3c2C(C)C)cc(C)n1 [Example 334, 2-(cyclobutylamino)-1-(4-(2-(2,6-dimethylpyridin-4-yl)-3-isopropyl-1H-indol-5-yl)piperidin-1-yl)ethan-1-one] | 8.12 | 6.32 | 8.64 |  |  |  |  | 
8 | Cc1cc(-c2[nH]c3ccc(C4CCN(C(=O)CCN5CCOCC5)CC4)cc3c2C(C)C)cc(C)n1 [Example 128, 1-(4-(2-(2,6-dimethylpyridin-4-yl)-3-isopropyl-1H-indol-5-yl)piperidin-1-yl)-3-morpholinopropan-1-one] | 7.81 | 6.14 | 8.41 |  |  |  |  | 
9 | Cc1cc(-c2[nH]c3ccc(C4CCN(C(=O)CN(C)C5CC5)CC4)cc3c2C(C)C)cc(C)n1 [Example 357, 2-(cyclopropyl(methyl)amino)-1-(4-(2-(2,6-dimethylpyridin-4-yl)-3-isopropyl-1H-indol-5-yl)piperidin-1-yl)ethan-1-one] | 6.98 | 5.63 | 7.86 |  |  |  |  | 
10 | CCc1c(-c2ccnc(C)c2C)[nH]c2ccc(C3CCNCC3)cc12 [Example 70, 2-(2,3-dimethylpyridin-4-yl)-3-ethyl-5-(piperidin-4-yl)-1H-indole] | 7.33 | 5.95 | 6.92 |  |  |  |  | 
11 | Cc1cc(-c2[nH]c3ccc(C4CCN(C(=O)CC5C(=O)NC(=O)N5C)CC4)cc3c2C(C)C)cc(C)n1 (stereo not drawn) [Example 130, 5-(2-(4-(2-(2,6-dimethylpyridin-4-yl)-3-isopropyl-1H-indol-5-yl)piperidin-1-yl)-2-oxoethyl)-1-methylimidazolidine-2,4-dione] | 7.13 | 4.93 | 7.53 |  |  |  |  | 
12 | Cc1cc(-c2[nH]c3ccc(C4CCN(C(=O)CN5CCCC(F)C5)CC4)cc3c2C(C)C)cc(C)n1 (stereo not drawn) [Example 363, 1-(4-(2-(2,6-dimethylpyridin-4-yl)-3-isopropyl-1H-indol-5-yl)piperidin-1-yl)-2-(3-fluoropiperidin-1-yl)ethan-1-one] | 7.47 | 5.74 | 8.08 |  |  |  |  | 
13 | CC(=O)Nc1ccc(S(=O)(=O)N2CCC(c3ccc4[nH]c(-c5ccnc(C)c5)c(C(C)C)c4c3)CC2)cc1 [Example 552, N-(4-((4-(3-isopropyl-2-(2-methylpyridin-4-yl)-1H-indol-5-yl)piperidin-1-yl)sulfonyl)phenyl)acetamide] | 6.95 | < 4.30 | 6.89 |  |  |  |  | 
14 | COCCOCC(=O)N1CCC(c2ccc3[nH]c(-c4cc(C)nc(C)c4)c(C(C)C)c3c2)CC1 [Example 114, 1-(4-(2-(2,6-dimethylpyridin-4-yl)-3-isopropyl-1H-indol-5-yl)piperidin-1-yl)-2-(2-methoxyethoxy)ethan-1-one] | 7.08 | 4.33 | 8.51 |  |  |  |  | 

Next, values leading:

Row | pIC50 [1, 4] | pIC50 [2, 5] | pIC50 [3, 6] | pIC50 ([1]; read-out: TLR8 IC50, HEK-Blue cells, R848 15.9 μM) | pIC50 ([2]; read-out: TLR9 IC50, HEK-Blue cells, ODN2006 5 nM) | pIC50 ([3]; HEK-Blue cells, gardiquimod 7.5 μM) | pIC50 ([1]; TLR8 IC50, HEK-Blue cells overexpressing human TLR8, R848 15.9 μM) | pIC50 ([2]; TLR9 IC50, HEK-Blue cells overexpressing human TLR9, ODN2006 5 nM) | Structure (SMILES)
15 | 8.21 | 6.07 | 7.64 |  |  |  |  |  | Cc1cc(-c2[nH]c3ccc(C4CCN(C5CCCOC5)CC4)cc3c2C(C)C)ccn1 (stereo not drawn) [Example 718, 3-isopropyl-2-(2-methylpyridin-4-yl)-5-(1-(tetrahydro-2H-pyran-3-yl)piperidin-4-yl)-1H-indole]
16 | 6.93 | 6.05 | 6.60 |  |  |  |  |  | CCc1c(-c2ccnc(C)c2)[nH]c2ccc(C3CCN(C(C)C)CC3)cc12 [Example 672, 3-ethyl-5-(1-isopropylpiperidin-4-yl)-2-(2-methylpyridin-4-yl)-1H-indole]
17 | 6.79 | < 4.30 | 7.41 |  |  |  |  |  | Cc1cc(-c2[nH]c3ccc(C4CCN(S(C)(=O)=O)CC4)cc3c2C(C)C)ccn1 [Example 550, 3-isopropyl-2-(2-methylpyridin-4-yl)-5-(1-(methylsulfonyl)piperidin-4-yl)-1H-indole]
18 | 7.81 | 6.04 | 8.12 |  |  |  |  |  | Cc1cc(-c2[nH]c3ccc(C4CCN(CC(=O)N5CCCC(F)C5)CC4)cc3c2C(C)C)cc(C)n1 (stereo not drawn) [Example 258, 2-(4-(2-(2,6-dimethylpyridin-4-yl)-3-isopropyl-1H-indol-5-yl)piperidin-1-yl)-1-(3-fluoropiperidin-1-yl)ethan-1-one]
19 |  |  |  | 7.33 | 7.07 | 6.67 |  |  | Cc1nc[nH]c1CN1CCC(c2ccc3[nH]c(-c4ccnc(N)c4)c(C(C)C)c3c2)CC1 [Example 816, 4-(3-isopropyl-5-(1-((4-methyl-1H-imidazol-5-yl)methyl)piperidin-4-yl)-1H-indol-2-yl)pyridin-2-amine]
20 | 7.98 | 6.44 | 8.48 |  |  |  |  |  | Cc1cc(-c2[nH]c3ccc(C4CCN(C(=O)CN5CCCC5)CC4)cc3c2C(C)C)cc(C)n1 [Example 352, 1-(4-(2-(2,6-dimethylpyridin-4-yl)-3-isopropyl-1H-indol-5-yl)piperidin-1-yl)-2-(pyrrolidin-1-yl)ethan-1-one]
21 | 7.88 | 6.22 | 8.12 |  |  |  |  |  | Cc1cc(-c2[nH]c3ccc(C4CCN(C(C)CF)CC4)cc3c2C(C)C)cc(C)n1 (stereo not drawn) [Example 472, 2-(2,6-dimethylpyridin-4-yl)-5-(1-(1-fluoropropan-2-yl)piperidin-4-yl)-3-isopropyl-1H-indole]
22 | 5.99 | 5.99 | 5.38 |  |  |  |  |  | CCc1c(-c2ccnc(NC(C)=O)c2)[nH]c2ccc(C3CCNCC3)cc12 [Example 68, N-(4-(3-ethyl-5-(piperidin-4-yl)-1H-indol-2-yl)pyridin-2-yl)acetamide]
23 | 6.80 | 4.79 | 7.90 |  |  |  |  |  | Cc1cc(-c2[nH]c3ccc(C4CCN(C(=O)CCNS(=O)(=O)c5ccccc5)CC4)cc3c2C(C)C)cc(C)n1 [Example 120, N-(3-(4-(2-(2,6-dimethylpyridin-4-yl)-3-isopropyl-1H-indol-5-yl)piperidin-1-yl)-3-oxopropyl)benzenesulfonamide]
24 | 6.94 | 6.70 | 6.64 |  |  |  |  |  | CNCCN1CCC(c2ccc3[nH]c(-c4ccnc(C(=O)OC)c4)c(C)c3c2)CC1 [Example 752, methyl 4-(3-methyl-5-(1-(2-(methylamino)ethyl)piperidin-4-yl)-1H-indol-2-yl) picolinate]
25 | 7.13 | 4.82 | 8.15 |  |  |  |  |  | Cc1cc(-c2[nH]c3ccc(C4CCN(C(=O)[C@@H]5CC(F)(F)CN5)CC4)cc3c2C(C)C)cc(C)n1 [Example 189, (S)-(4,4-difluoropyrrolidin-2-yl)(4-(2-(2,6-dimethylpyridin-4-yl)-3-isopropyl-1H-indol-5-yl)piperidin-1-yl) methanone]
26 |  |  | 8.41 |  |  |  | 8.09 | 6.41 | Cc1cc(-c2[nH]c3ccc(C4CCN(C(=O)C5CCN(C)CC5)CC4)cc3c2C(C)C)cc(C)n1 [Example 110, (4-(2-(2,6-dimethylpyridin-4-yl)-3-isopropyl-1H-indol-5-yl)piperidin-1-yl)(1-methylpiperidin-4-yl)methanone]
27 | 6.68 | 4.76 | 7.84 |  |  |  |  |  | Cc1cc(-c2[nH]c3ccc(C4CCN(C(=O)CN5CC(F)(F)C[C@H]5CO)CC4)cc3c2C(C)C)cc(C)n1 [Example 403, (S)-2-(4,4-difluoro-2-(hydroxymethyl)pyrrolidin-1-yl)-1-(4-(2-(2,6-dimethylpyridin-4-yl)-3-isopropyl-1H-indol-5-yl)piperidin-1-yl)ethan-1-one]
